Values quoted from earlier work as cited in patent publication US9848955B2, “Resorbable pouches for implantable medical devices” (TYRX Inc., priority 2006, dated 2017).

Test system: myofibroblast formation
Details: animal studies of capsular contracture with breast implants [Ajmal et al. (2003)]

## O=S(=O)([O-])CCS.[Na+] [Mesna, sodium 2-mercaptoethane sulfonate]
  myofibroblast formation: diminish myofibroblast formation
